# Assay results published in patent US20170280722A1, “COMPOSITIONS AND METHODS FOR CONTROL OF SAND FLIES AND OTHER BLOOD SUCKING INSECTS” (GENESIS LABORATORIES, INC., priority 2010, published 2017).
# How the values were obtained:
# [1] = test system: P. argentipes 1st instar larvae; test: Larval bioassay with feces of insecticide treated R. rattus (feed through); format: in vivo; conditions: for Mean ± SEM survival (days) of P. arg larvae post-exposure / P. argentipes larvae mortality (%): feces of R. rattus day-1 post treatment
# Procedure: In the first study, a feed through study comparing diflubenzuron, fipronil, ivermectin, and eprinomectin was conducted on rats (Rattus rattus). Fecal samples were collected after three (3) consecutive days of administration of the trial products. The efficacy of the drugs administered during the blind study underwent testing in larval bioassays with P. argentipes 1st instar larvae. Commercially available chicken feed was mixed with the appropriate concentrations of each insecticide compound and used as is in the trial.
# Twelve (12) locally purchased rats (Rattus rattus) of mixed sex were utilized in a small study testing the efficacy of four feed through insecticides. Five treatment groups of two rats each were randomly identified and fed diets consisting of locally available chicken feed treated with one of the following compounds: diflubenzuron (0.048%), fipronil (0.015%), ivermectin (0.025%), and eprinomectin (0.01% and 0.025%). Two rats served as control and were fed only chicken feed. Rats were fed 20 g of their assigned diet daily at the same time, with daily consumption and spillage calculated for a period of three (3) days. Sand fly analyses were conducted simultaneously.
# […] Collected feces were dried at approximately 40° C. in an oven then ground into a fine powder utilizing a pestle and mortar and frozen at −20° C. until larval bioassays were initiated.
# Larval bioassay pots were prepared using 48 mm, 100 g round Dibbi jars. Dishes were prepared by burning several small holes into the bottom of the dish with a soldering iron and filling them with a small layer of plaster (¼ to ½ inch depth). Approximately 15-20 holes were punctured into the lids using 24 gauge needles. For simpler mortality counting, pots were quartered and each quadrant numbered using an ultra fine black Sharpie.
# For each individual post-treatment bioassays, thirteen (13) dishes were loaded with 10 day old 1st instar P. argentipes larvae; twelve (12) pots were provided with approximately 0.005 g of the treated feces, with two sample pots per treated bandicoot rat, and one overall control sample fed only standard larval diet. See Table 1 for sample/treatment correlations. Larvae were loaded into bioassay pots and provided with their designated treatment sample. Mortality counts of larvae were conducted every 24 hours post-treatment until 100% mortality, or pupation, was reached.
# [2] = test system: P. papatasi larvae; test: Larval bioassay with feces of sand rats fed imidacloprid diet; format: in vivo
# Procedure: A second trial was carried out using sand rats (Psammomys obesus) as the carrier of sand flies (P. papatasi) and imidacloprid as the insecticide. This rodent species was targeted since it serves as the source of blood meals for adult sand flies and its feces serves as a platform for larval development in Middle East ecosystems.
# (§1) The test insecticide, imidacloprid at 250 ppm (0.025%) was incorporated into the feed together with orange, yellow, or green dye and fed to rats housed in standard laboratory caging. The treatment groups consisted of 6 males and 9 females; Controls: 3 males and 4 females with a body weight between 125-250 g.
# (§2) DESIGN—Five sand rats were provided the reformulated diet for each of the treatment levels (50 ppm, 100 ppm, 250 ppm). Five sand rats were provided with control diets without imidacloprid. Two additional rats were provided with control diets containing green dye.
# (§3) Feces were collected from the Alpha-Dri bedding for the last 5 days of the 7 day treatment period. Feces were weighed and transferred to a plastic bag labeled with the animal's cage identification number and stored frozen at −20° C.
# Bioassays of the larval groups comprised: four imidacloprid treatments (0, 50, 100, 250 ppm) (number of replicates per assay n=5), one control group (n=8), and one green dye treatment (n=2). These bioassays were conducted with 1st and 2-3rd instar larvae and were repeated three times. Bioassays were conducted in 6 well culture plates (Corning, Inc) with 5 ml of plaster of Paris in the bottom of each well. The plaster was saturated with distilled water before the experiment, and was blotted with filter paper to remove standing water immediately before use. The effect of imidacloprid treatment on 1st and 2nd-3rd instar larvae was tested. The control group was provided using standard larval diet. This allowed comparison of sand fly survival between those feeding on feces from sand rats that fed on non treated feed and those fed on standard sand fly diet. First instar larvae were obtained by adding 50 eggs to each well and allowed to hatch and fed on regular diet for 2-3 days. At this time ca. 0.1 g of crushed pellets or control feed was added. Second-3rd instar larvae were obtained by letting 1st instar larvae grow on standard diet in the wells until moulted. At this, time crushed pellets or control feed (0.1 g) was added. […] The wells of the plate were covered with parafilm which was punctured with a needle to allow for ventilation. The wells were kept in a humidified room (26° C./75% RH) inside a covered tube which contained a saturated sponge. The container was placed in an environmental chamber at 28 C, 90% RH, and a photoperiod of 14:10 (L:D) h. […] Alimentation was noted by observation of the presence of frass in the vials and dark material in the guts of the larvae.
# [3] = Acceptance and tolerance of imidacloprid diet by sand rats; format: in vivo, Psammomys obesus
# Text: as §1, §2, §3
# [4] = cited from earlier work
molecule,measurement,setting,value
O=C(NC(=O)c1c(F)cccc1F)Nc1ccc(Cl)cc1 [diflubenzuron],Mean ± SEM survival (days) of P. arg larvae post-exposure,[1]; 480 ppm,9.75 ± 0.71 days
same,P. argentipes larvae mortality (%),[1]; 480 ppm,100%
O=[N+]([O-])NC1=NCCN1Cc1ccc(Cl)nc1 [imidacloprid],Survivorship for 1st instar larvae,"[2]; by day 5, feces from sand rats administered 100 ppm",< 5%
same,Survivorship for 1st instar larvae,"[2]; by day 5, feces from sand rats administered 250 ppm",< 5%
same,Survivorship for 2nd/3rd instar larvae,"[2]; by day 7, feces from sand rats administered 250 ppm",10%
same,Larval mortality,"[2]; by seven days, feces from diets containing 250 ppm",90%
same,Larvicidal effect of feces for 1st instar larvae,[2]; sand rats fed diets of 100 ppm and 250 ppm,rapidly and highly larvicidal
same,Difference in fecal production between treatment groups,[3]; P=0.1199,no significant difference
same,Health of sand rats on diet,"[3]; diets 50, 100, 250 ppm, 7 day treatment",without any apparent health abnormalities
same,Residue in blood,[4]; three days post oral treatment,zero residue
CC1(C)C(C=C(Cl)Cl)C1C(=O)OCc1cccc(Oc2ccccc2)c1 (stereo not shown) [permethrin],Time within which the majority of the product is excreted,"[4]; rodents, oral treatment",≤ 48 h
same,Absorption by the skin,[4]; topical,not readily absorbed by the skin
eprinomectin,Mean ± SEM survival (days) of P. arg larvae post-exposure,[1]; 100 ppm,12.65 ± 0.70 days
same,P. argentipes larvae mortality (%),[1]; 100 ppm,100%
same,Mean ± SEM survival (days) of P. arg larvae post-exposure,[1]; 250 ppm,10.70 ± 0.38 days
same,P. argentipes larvae mortality (%),[1]; 250 ppm,100%
ivermectin,Mean ± SEM survival (days) of P. arg larvae post-exposure,[1]; 250 ppm,7.40 ± 0.11 days
same,P. argentipes larvae mortality (%),[1]; 250 ppm,100%
same,Day of observation by which 100% larval mortality was reached,[1]; feces of R. rattus fed 0.025% in feed,≤ 8 days
